Some results are limits rather than exact numbers.

Among the data in ChEMBL document CHEMBL1153700, “Synthesis and SAR of novel, non-MPEP chemotype mGluR5 NAMs identified by functional HTS” (Bioorg Med Chem Lett, 2009) are IC50 and % Glu Max values, retold here.

Assay [1] addresses Metabotropic glutamate receptor 5 (Rattus norvegicus, UniProt P31424). The assay can be described thus: Antagonist activity at rat mGluR5 expressed in human HEK293A cells assessed as inhibition of glutamate-induced calcium flux. Format: functional, cell-based, HEK293-A. Background: Calcium flux is commonly read through the fluorescence of an indicator in the cells.
Assay [2] concerns the target Metabotropic glutamate receptor 5 (Rattus norvegicus) (UniProt P31424). As to the kind of experiment: Antagonist activity at rat mGluR5 expressed in human HEK293A cells assessed as inhibition of glutamate-induced calcium flux relative to glutamate. Format: functional, cell-based. To be noted: HEK293-A.
The target in assay [3] is Metabotropic glutamate receptor 5 (Homo sapiens, UniProt P41594). As to the kind of experiment: Antagonist activity at mGluR5. The format is functional.
Metabotropic glutamate receptor 5 (Homo sapiens, UniProt P41594), sequence (P41594 whole entry): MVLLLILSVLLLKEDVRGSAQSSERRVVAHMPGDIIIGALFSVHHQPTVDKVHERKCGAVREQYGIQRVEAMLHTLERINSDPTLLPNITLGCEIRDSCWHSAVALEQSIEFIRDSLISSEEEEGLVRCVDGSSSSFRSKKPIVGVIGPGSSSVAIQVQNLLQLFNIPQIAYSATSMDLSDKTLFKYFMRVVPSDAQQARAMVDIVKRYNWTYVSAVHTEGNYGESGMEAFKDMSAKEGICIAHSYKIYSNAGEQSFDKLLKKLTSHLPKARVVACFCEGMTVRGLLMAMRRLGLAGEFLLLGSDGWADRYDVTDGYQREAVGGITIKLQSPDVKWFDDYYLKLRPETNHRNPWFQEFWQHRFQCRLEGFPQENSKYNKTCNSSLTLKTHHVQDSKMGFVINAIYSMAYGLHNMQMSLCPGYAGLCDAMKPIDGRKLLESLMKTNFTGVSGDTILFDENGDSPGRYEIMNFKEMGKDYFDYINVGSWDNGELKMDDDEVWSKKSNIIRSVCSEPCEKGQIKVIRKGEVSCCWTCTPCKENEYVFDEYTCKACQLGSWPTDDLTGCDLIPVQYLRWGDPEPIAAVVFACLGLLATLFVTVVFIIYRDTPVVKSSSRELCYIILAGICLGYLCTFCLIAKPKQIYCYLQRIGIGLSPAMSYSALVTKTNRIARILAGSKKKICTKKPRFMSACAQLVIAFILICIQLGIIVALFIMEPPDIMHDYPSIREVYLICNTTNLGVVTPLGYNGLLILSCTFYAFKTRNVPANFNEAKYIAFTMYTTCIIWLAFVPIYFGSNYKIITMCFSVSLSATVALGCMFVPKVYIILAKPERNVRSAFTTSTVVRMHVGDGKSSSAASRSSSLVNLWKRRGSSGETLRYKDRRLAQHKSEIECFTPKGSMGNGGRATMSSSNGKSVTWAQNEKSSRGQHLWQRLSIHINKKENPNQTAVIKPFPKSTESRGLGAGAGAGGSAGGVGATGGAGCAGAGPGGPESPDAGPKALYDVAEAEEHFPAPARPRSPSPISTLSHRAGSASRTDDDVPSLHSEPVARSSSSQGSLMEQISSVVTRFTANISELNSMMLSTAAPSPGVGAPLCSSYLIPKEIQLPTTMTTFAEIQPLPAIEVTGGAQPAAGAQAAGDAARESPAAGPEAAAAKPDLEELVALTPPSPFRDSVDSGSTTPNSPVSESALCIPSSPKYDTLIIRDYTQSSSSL

Metabotropic glutamate receptor 5 (Rattus norvegicus), sequence (P31424 21-1203 limits assumed): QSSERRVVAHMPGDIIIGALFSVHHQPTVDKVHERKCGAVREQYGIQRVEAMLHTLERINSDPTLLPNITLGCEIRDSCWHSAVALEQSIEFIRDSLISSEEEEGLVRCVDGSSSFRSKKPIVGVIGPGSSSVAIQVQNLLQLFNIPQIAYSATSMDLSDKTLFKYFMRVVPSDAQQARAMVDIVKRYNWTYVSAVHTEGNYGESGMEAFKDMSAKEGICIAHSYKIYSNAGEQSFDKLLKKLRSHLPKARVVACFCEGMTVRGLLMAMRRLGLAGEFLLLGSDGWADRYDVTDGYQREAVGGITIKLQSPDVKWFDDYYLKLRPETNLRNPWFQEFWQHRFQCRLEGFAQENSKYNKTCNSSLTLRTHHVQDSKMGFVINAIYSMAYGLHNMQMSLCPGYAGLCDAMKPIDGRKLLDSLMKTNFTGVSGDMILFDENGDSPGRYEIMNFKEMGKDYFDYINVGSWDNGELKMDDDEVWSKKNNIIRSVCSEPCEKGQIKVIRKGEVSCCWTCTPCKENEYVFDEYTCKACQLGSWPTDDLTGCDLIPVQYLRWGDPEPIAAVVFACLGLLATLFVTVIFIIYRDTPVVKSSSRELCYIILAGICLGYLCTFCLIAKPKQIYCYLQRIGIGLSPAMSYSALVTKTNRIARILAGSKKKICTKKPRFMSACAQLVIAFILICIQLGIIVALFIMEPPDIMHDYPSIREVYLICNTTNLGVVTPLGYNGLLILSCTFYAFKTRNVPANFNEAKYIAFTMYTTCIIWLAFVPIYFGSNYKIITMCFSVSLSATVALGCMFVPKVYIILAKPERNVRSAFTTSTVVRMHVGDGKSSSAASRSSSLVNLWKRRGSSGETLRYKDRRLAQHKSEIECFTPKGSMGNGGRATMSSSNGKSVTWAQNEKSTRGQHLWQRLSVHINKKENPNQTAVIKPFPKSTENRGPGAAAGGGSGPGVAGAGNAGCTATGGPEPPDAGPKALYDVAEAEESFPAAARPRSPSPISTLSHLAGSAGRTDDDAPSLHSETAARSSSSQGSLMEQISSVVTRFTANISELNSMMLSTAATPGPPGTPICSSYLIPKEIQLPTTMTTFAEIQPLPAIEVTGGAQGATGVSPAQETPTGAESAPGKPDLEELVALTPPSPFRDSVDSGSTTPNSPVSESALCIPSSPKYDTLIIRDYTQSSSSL
Metabotropic glutamate receptor 5 (Rattus norvegicus, UniProt P31424), sequence (P31424 whole entry): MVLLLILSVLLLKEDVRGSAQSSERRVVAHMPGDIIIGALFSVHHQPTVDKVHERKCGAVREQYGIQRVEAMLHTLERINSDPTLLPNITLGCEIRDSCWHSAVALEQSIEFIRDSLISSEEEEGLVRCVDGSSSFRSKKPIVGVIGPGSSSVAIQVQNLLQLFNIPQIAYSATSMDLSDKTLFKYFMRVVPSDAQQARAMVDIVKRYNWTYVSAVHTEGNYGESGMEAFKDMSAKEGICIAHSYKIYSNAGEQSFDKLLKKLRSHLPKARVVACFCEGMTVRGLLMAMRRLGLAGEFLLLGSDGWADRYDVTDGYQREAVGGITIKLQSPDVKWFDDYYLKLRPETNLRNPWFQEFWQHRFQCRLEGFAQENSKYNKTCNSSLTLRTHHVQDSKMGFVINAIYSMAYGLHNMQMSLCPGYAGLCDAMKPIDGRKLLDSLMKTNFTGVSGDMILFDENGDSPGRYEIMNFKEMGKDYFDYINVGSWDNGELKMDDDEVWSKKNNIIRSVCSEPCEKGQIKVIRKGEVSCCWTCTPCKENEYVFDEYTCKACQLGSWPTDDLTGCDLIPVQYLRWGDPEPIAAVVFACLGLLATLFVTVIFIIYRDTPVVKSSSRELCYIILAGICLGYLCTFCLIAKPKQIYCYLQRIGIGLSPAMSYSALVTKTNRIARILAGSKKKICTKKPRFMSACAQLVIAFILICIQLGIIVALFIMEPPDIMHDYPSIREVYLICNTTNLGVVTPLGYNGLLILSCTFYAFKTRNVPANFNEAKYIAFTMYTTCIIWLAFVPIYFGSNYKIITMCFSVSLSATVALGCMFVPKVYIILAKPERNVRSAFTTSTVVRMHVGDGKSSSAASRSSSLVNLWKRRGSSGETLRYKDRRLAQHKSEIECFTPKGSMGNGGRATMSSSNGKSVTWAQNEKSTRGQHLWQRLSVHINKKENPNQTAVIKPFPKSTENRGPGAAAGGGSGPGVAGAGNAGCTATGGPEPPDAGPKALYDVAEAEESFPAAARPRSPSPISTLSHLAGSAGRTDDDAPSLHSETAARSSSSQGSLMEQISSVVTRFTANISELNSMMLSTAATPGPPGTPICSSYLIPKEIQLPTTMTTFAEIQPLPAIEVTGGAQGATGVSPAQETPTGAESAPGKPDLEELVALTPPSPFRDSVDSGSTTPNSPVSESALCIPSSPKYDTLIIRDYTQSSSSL

By IC50 is commonly meant the concentration needed to halve the response being measured. For the compound `O=C(Nc1cccc(NC(=O)c2cccc(Cl)c2)c1)c1ccc(Cl)cc1`, the IC50 in assay [1] was greater than 30 µM.

Turning to `O=C(Nc1cccc(NC(=O)c2cccc(C(F)(F)F)c2)c1)c1cccc(Cl)c1`, the IC50 in assay [1] is greater than 30 µM.

As for `COc1ccccc1C(=O)Nc1cccc(NC(=O)c2ccc3c(c2)OCO3)c1`, the IC50 in assay [1] was greater than 30 µM.

Consider `COc1ccccc1C(=O)Nc1cccc(NC(=O)C2CCCC2)c1`, for which the IC50 in assay [1] was greater than 30 µM.

With `O=C(Nc1cccc(NC(=O)C2CC2c2ccccc2)c1)c1cccc(Cl)c1` (stereo not drawn), the IC50 in assay [1] was greater than 30 µM.

Regarding `O=C(NC1CC1)c1cccc(N2C(=O)c3ccccc3C2=O)c1`, the IC50 in assay [1] was greater than 30 µM. Moreover, the % Glu Max in assay [2] was determined as 68%.

Regarding `COCC(=O)Nc1cccc(NC(=O)c2cccc(Cl)c2)c1`, the IC50 in assay [1] was greater than 30 µM.

As for `COc1ccccc1C(=O)Nc1cccc(NC(=O)c2cc(Cl)cc(Cl)c2)c1`, the IC50 in assay [1] was greater than 30 µM.

On to `O=C(Nc1cccnc1)c1cccc(N2C(=O)c3ccccc3C2=O)c1`, for which, in assay [1], the IC50 is greater than 30 µM. The % Glu Max in assay [2] came to 86%.

`O=C(Nc1cccc(NC(=O)C23CC4CC(CC(C4)C2)C3)c1)c1cccc(Cl)c1`: the IC50 in assay [1] is greater than 30 µM.

For the compound `O=C(Nc1cccc(Cl)c1)c1cccc(N2C(=O)c3ccccc3C2=O)c1`, the IC50 in assay [1] was 1.78 µM. Besides, the % Glu Max in assay [2] came to 26.4%.

As for `O=C(NC1CC2CCC1C2)c1cccc(N2C(=O)c3ccccc3C2=O)c1` (stereo not drawn), the IC50 in assay [1] is greater than 30 µM. The % Glu Max in assay [2] worked out at 71%.

With `COc1ccccc1C(=O)Nc1cccc(NC(=O)c2cccc(C(F)(F)F)c2)c1`, the IC50 in assay [1] worked out at 10.6 µM. In assay [2], the % Glu Max stood at 26.1%.

On to `COc1ccccc1C(=O)Nc1cccc(NC(=O)c2ccccc2Cl)c1`, for which, in assay [1], the IC50 was greater than 30 µM.

For the compound `COc1ccccc1C(=O)Nc1cccc(NC(=O)C23CC4CC(CC(C4)C2)C3)c1`, the IC50 in assay [1] was greater than 30 µM.

For `COc1ccccc1C(=O)Nc1cccc(NC(=O)c2ccco2)c1`, the IC50 in assay [1] was greater than 30 µM.

With `COc1ccccc1C(=O)Nc1cccc(NC(=O)Cc2ccccc2)c1`, in assay [1], the half-maximal inhibitory concentration (IC50) is greater than 30 µM.

Regarding `O=C(Nc1cccc(NC(=O)c2ccc3c(c2)OCO3)c1)c1cccc(Cl)c1`, the IC50 in assay [1] was greater than 30 µM.

`O=C(Nc1cccc(NC(=O)C2CC2)c1)c1cccc(Cl)c1`: in assay [1], the IC50 worked out at 2.23 µM. Moreover, in assay [2], the % Glu Max is 32.3%.

`O=C(Nc1ccccc1F)c1cccc(N2C(=O)c3ccccc3C2=O)c1`: in assay [1], the IC50 is 1.05 µM. In addition, the % Glu Max in assay [2] was found to be 49.9%.

Regarding `CC(C)C(=O)Nc1cccc(NC(=O)c2cccc(Cl)c2)c1`, the IC50 in assay [1] was found to be 5.82 µM. Also, the % Glu Max in assay [2] came out at 26.9%.

With `COc1ccccc1C(=O)Nc1cccc(NC(=O)c2cccc(Cl)c2)c1`, the IC50 worked out at 0.88 µM in assay [1] and 1.1 µM in assay [3]. Moreover, the % Glu Max in assay [2] came out at 2.6%.

Consider `O=C(Nc1cccc(NC(=O)C2CCCC2)c1)c1cccc(Cl)c1`, for which the IC50 in assay [1] was greater than 30 µM.

For the compound `COc1ccccc1C(=O)Nc1cccc(NC(=O)c2ccc(Cl)c(Cl)c2)c1`, in assay [1], the IC50 was greater than 30 µM.

On to `COc1ccccc1C(=O)Nc1cccc(NC(=O)C2CCCCC2)c1`, for which the IC50 in assay [1] was greater than 30 µM.

As to `COc1ccccc1C(=O)Nc1cccc(NC(=O)c2cccc(C)c2)c1`, in assay [1], the IC50 was determined as 1.35 µM. In assay [2], the % Glu Max is 3.82%.

As to `COc1ccccc1C(=O)Nc1cccc(NC(=O)C2CC2)c1`, the IC50 in assay [1] is greater than 30 µM.

For `O=C(Nc1cccc(NC(=O)c2cccc(Cl)c2)c1)c1ccc(F)cc1`, in assay [1], the IC50 was greater than 30 µM.

For `O=C(Nc1cccc(NC(=O)c2cccc(Cl)c2)c1)c1cccc(F)c1`, the IC50 in assay [1] is greater than 30 µM.

For the compound `O=C(Nc1cccc(NC(=O)c2cccc(Cl)c2)c1)c1cccc(Cl)c1`, the IC50 in assay [1] is greater than 30 µM.

Take `COc1ccccc1C(=O)Nc1cccc(NC(=O)c2cccc(C#N)c2)c1`: the IC50 in assay [1] is 1.8 µM. Moreover, in assay [2], the % Glu Max amounted to 3.22%.

As to `Cc1cccc(C(=O)Nc2cccc(NC(=O)c3cccc(Cl)c3)c2)c1`, in assay [1], the IC50 was greater than 30 µM.

Take `O=C(Nc1ccc(F)cc1)c1cccc(N2C(=O)c3ccccc3C2=O)c1`: the IC50 in assay [1] is greater than 30 µM. The % Glu Max in assay [2] came out at 73%.

Turning to `COc1ccccc1C(=O)Nc1cccc(NC(=O)c2cccc(F)c2)c1`, the IC50 in assay [1] amounted to 6.48 µM. For the same compound, the % Glu Max in assay [2] was 25.8%.

On to `COc1ccccc1NC(=O)c1cccc(N2C(=O)c3ccccc3C2=O)c1`, for which, in assay [1], the IC50 was greater than 30 µM. Further, in assay [2], the % Glu Max was determined as 86%.

Regarding `O=C(Cc1ccccc1)Nc1cccc(NC(=O)c2cccc(Cl)c2)c1`, the IC50 in assay [1] is greater than 30 µM.

Take `COCC(=O)Nc1cccc(NC(=O)c2ccccc2OC)c1`: in assay [1], the IC50 was greater than 30 µM.

With `COc1ccccc1C(=O)Nc1cccc(NC(=O)C2CCC2)c1`, the IC50 in assay [1] was greater than 30 µM.

`O=C(Nc1ccccn1)c1cccc(N2C(=O)c3ccccc3C2=O)c1`: in assay [1], the IC50 amounted to 1.26 µM. Also, the % Glu Max in assay [2] is 59.5%.

Turning to `O=C(Nc1cccc(NC(=O)C2CCC2)c1)c1cccc(Cl)c1`, the IC50 in assay [1] was found to be 5.27 µM. Further, the % Glu Max in assay [2] was determined as 44%.

As to `O=C(Nc1cccc(NC(=O)c2ccc(Cl)c(Cl)c2)c1)c1cccc(Cl)c1`, the IC50 in assay [1] is greater than 30 µM.

`COc1ccccc1C(=O)Nc1cccc(NC(C)=O)c1`: the IC50 in assay [1] is greater than 30 µM.

For the compound `COc1ccccc1C(=O)Nc1cccc(NC(=O)C2CC2c2ccccc2)c1` (stereo not drawn), the IC50 in assay [1] was greater than 30 µM.

`O=C(Nc1cccc(NC(=O)c2ccco2)c1)c1cccc(Cl)c1`: the IC50 in assay [1] came out at 4.51 µM. In addition, the % Glu Max in assay [2] is 49.3%.

Turning to `COc1cc(NC(=O)c2cccc(N3C(=O)c4ccccc4C3=O)c2)cc(OC)c1`, the IC50 in assay [1] stood at 3.58 µM. The % Glu Max in assay [2] stood at 76.2%.

For `COc1ccccc1C(=O)Nc1cccc(NC(=O)C(C)C)c1`, in assay [1], the IC50 is greater than 30 µM.

In the case of `COc1ccccc1C(=O)Nc1cccc(NC(=O)c2ccc(F)cc2)c1`, the IC50 in assay [1] was greater than 30 µM.

For `O=C(Nc1cccc(O)c1)c1cccc(N2C(=O)c3ccccc3C2=O)c1`, the IC50 in assay [1] amounted to 7.79 µM. The % Glu Max in assay [2] turned out to be 48.1%.

Regarding `CC(=O)Nc1cccc(NC(=O)c2cccc(Cl)c2)c1`, the IC50 in assay [1] came out at 7.97 µM. The % Glu Max in assay [2] is 39.6%.

As to `COc1ccccc1C(=O)Nc1cccc(NC(=O)c2ccc(Cl)cc2)c1`, the IC50 in assay [1] was greater than 30 µM.

On to `O=C(Nc1cccc(NC(=O)c2ccccc2Cl)c1)c1cccc(Cl)c1`, for which the IC50 in assay [1] amounted to 2.62 µM. The % Glu Max in assay [2] worked out at 8.78%.
